Here are results for one compound from patent US6881739B1, “Use of cortisol antagonists in the treatment of heart failure” (priority 1999, dated 2005).

Molecules are shown by their SMILES.

The subject of the assay is heart failure. The assay is described as follows: Treatment of heart failure patients with ketoconazole (case observations, Examples 1 and 2). The format is in vivo, human. Here is the method: Also, moderate dyspnea and increased heart rate as well as an increase in liver size (indicative of fluid retention in the liver). Patient being treated for heart failure with lisinopril (Zestril®) Treatment: 400 mg of a racemate of the Cis-2S,4R and Cis-2R,4S isomers of ketoconazole (Fungoral™ tablets—Janssen-Cilag, Belgium) was administered at 10.00 pm every day for a 3 month period. Observations: Body weight reduced by 3.8 kg—attributable to a reduction in fluid retention. Heart rate fell from 72 beats/min to 62 beats/min. Reduction in liver size of 10% and a resulting reduction in liver transaminases • S-ASAT reduced from 0.44 to 0.30 μKat/L • S-ALAT reduced from 1.0 to 0.39 μKat/L Dyspnea, oedema of lower limbs and body fluid in the lungs reduced. Physical health as measured by a subnormal physical exercise test (Faggiano, P. et al. supra) improved by 15%.
Patient being treated for heart failure with furosemid (40 mg/day)
Treatment: As for Example 1.

Setting [1] is: Subject 1, 400 mg daily for 3 months.
The mark [2] stands for this setting: Subject 2, treatment as for Example 1.

On to `CC(=O)N1CCN(c2ccc(OCC3COC(Cn4ccnc4)(c4ccc(Cl)cc4Cl)O3)cc2)CC1` (racemic) [ketoconazole], for which the “Body weight reduced by” value was 3.8 kg (Subject 1 (on lisinopril), 400 mg at 10.00 pm every day for 3 months, attributable to reduced fluid retention) and 4.2 kg (Subject 2 (on furosemid 40 mg/day), treatment as for Example 1). In addition, the “Dose of co-administered lisinopril (Zestril) could be reduced” value under setting [1] is given as “half of original dose”. Moreover, the “Dyspnea, oedema of lower limbs and body fluid in the lungs” value under setting [1] was “reduced”. Besides, the “Physical health as measured by a subnormal physical exercise test, improved by” value by setting is: under setting [1], 15%; under setting [2], 20%. Moreover, the “Reduction in liver size” value under setting [1] was 10% and the “Reduction in liver size” value under setting [2] came to 15%. Further, the “Heart rate after treatment” value runs as follows: (Subject 1, 400 mg daily for 3 months, fell from 72 beats/min) 62 beats/min; (Subject 2, treatment as for Example 1, fell from 74 beats/min) 60 beats/min. For the same compound, the S-ASAT after treatment (Subject 1, 400 mg daily for 3 months, reduced from 0.44) turned out to be 0.30 μKat/L and the S-ASAT after treatment (Subject 2, treatment as for Example 1, reduced from 0.58) is given as 0.32 μKat/L. For the same compound, the S-ALAT after treatment is, setting by setting: (Subject 1, 400 mg daily for 3 months, reduced from 1.0) 0.39 μKat/L; (Subject 2, treatment as for Example 1, reduced from 0.92) 0.68 μKat/L. Besides, under setting [2], the “Dyspnea, oedema of lower limbs and body fluid in lungs” value is listed as “reduced”. The “Time from commencement of treatment until furosemid could be stopped” value under setting [2] was not above 6 weeks.
